The values below are quoted from earlier work in patent US20260199284A1, “SPECIFIC VASH COMPOUNDS (SVC) INHIBITORS FOR HEART DISEASES” (MT ACT, priority 2023, published 2026).

The test system of this series is VASH. Particulars: cited from earlier work.

Turning to `CCOC(=O)[C@H]1O[C@@H]1C(=O)N[C@@H](Cc1ccc(O)cc1)C(=O)O` [Epo-Y, epoxide-Y], the “more potent VASH inhibitor than PTL” value is reported as over 10 fold.
